Data published in US20260374766A1, “METHODS FOR TREATING CANCER” (Antares Therapeutics, Inc., priority 2022, published 2026).
Counter-ions that a name gives are not always drawn. Like-named read-outs stand apart in the source and are kept apart here.

Assays:
[1] = molecular target: T1, p53 Y220C mutant protein (amino acid residues 94-293) (Homo sapiens, UniProt P04637, Y220C); test: Surface Plasmon Resonance (SPR) assay, Kd_kinetic; type: binding; settings: read-out: SPR P53 Y220C KD kinetic
T1 construct: p53 Y220C mutant protein (amino acid residues 94-293)
Summary of the method: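 Kinetic dissociation constants derived by 1:1 model fit of SPR data acquired at 16 or 20 °C, pH 7.5 Tris/NaCl running buffer with 1% DMSO.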

[2] = molecular target: T1, p53 Y220C mutant protein (amino acid residues 94-293); test: Thermal Shift Assay (TSA), dTM; type: binding; settings: for ΔTm at 100 µM: 100 uM compound; for ΔTm at 10 µM: 10 uM compound
Procedure: Thermal Shift Assay (TSA) Protocol
5 μM recombinant p53 Y220C mutant protein (amino acid residues 94-293) was incubated with 10 μM or 100 μM compound for 3 hours at 20 °C in buffer containing 20 mM HEPES, pH7.4, 100 mM NaCl, 0.01% Pluronic F-127, and 1% DMSO in the presence of 400-fold diluted Sypro Orange (ThermoFisher Scientific catalog number 4461146), on a 384-well PCR plate (Applied Biosystems catalog number 4483285). The volume was 5 μL/well. The sealed plate was then loaded onto a QuantStudio 7 Flex instrument for melting temperature (TM) measurement. The temperature was increased from 30 °C to […], at a rate of 0.03 °C/second. Data were fit into a Boltzmann two-state model to determine the TM.

p53 Y220C = p53 Y220C (Homo sapiens, UniProt P04637, Y220C); test: Luciferase Reporter Assay (Luc), p53 response element, NClH1299 cells with inducible p53 Y220C; type: cell-based; settings: luciferase reporter, NClH1299 inducible p53 Y220C, 6 hour; for AC50: read-out: Luc P53 Y220C AC50
Summary of the method: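 Doxycycline (0.5 ug/mL, 24 h) induces the mutant before a 6-hour compound treatment. Reporter activity is then quantified by One-Glo luminescence.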

NUGC3 p53 Y220C = test: Cell Proliferation Assay (CellTiter-Glo, CTG), NUGC3 p53 Y220C; type: cell-based; settings: Homo sapiens, NUGC-3, 120 h, CellTiter-Glo, 5 days
Summary of the method: (§1)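 Tet-One inducible p53 Y220C or R273H constructs were stably introduced into NCI-H1299 by lentiviral transduction; NUGC3 was used as is. Cells (250-500 per well) were exposed to compound for 5 days, then CellTiter-Glo was added for 10 min at room temperature and IC50 was calculated from luminescence.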

H1299 p53 Y220C = test: Cell Proliferation Assay (CellTiter-Glo, CTG), H1299 p53 Y220C (NClH1299-inducible p53 Y220C); type: cell-based; settings: Homo sapiens, NCI-H1299, 120 h, CellTiter-Glo, 5 days
Summary of the method: as §1

H1299 p53 R273H = test: Cell Proliferation Assay (CellTiter-Glo, CTG), H1299 p53 R273H (NClH1299-inducible p53 R273H); type: cell-based; settings: Homo sapiens, NCI-H1299, 120 h, CellTiter-Glo, 5 days
Summary of the method: as §1

[3] = thermal shift, read-out: TSA P53 Y220C dTM (100 uM)
[4] = 10 uM tool compound as positive control
[5] = p53 Y220C, read-out: TSA P53 Y220C dTM
[6] = NClH1299-inducible p53 Y220C cells
[7] = NClH1299-inducible p53 R273H cells
[8] = thermal shift, read-out: TSA P53 Y220C dTM (10 uM)

Compound | Kd ([1]; SPR, kinetic KD, p53 Y220C) | ΔTm at 100 µM [2, 3] | Emax (p53 Y220C; [4]) | AC50 (p53 Y220C) | IC50 (NUGC3 p53 Y220C; NUGC3 p53 Y220C) | IC50 (H1299 p53 Y220C; H1299 p53 Y220C) | IC50 (H1299 p53 R273H; H1299 p53 R273H) | Kd ([1]; SPR, p53 Y220C) | ΔTm at 10 µM [2, 5] | ΔTm at 100 µM [2, 5] | AC50 (p53 Y220C; AC50) | Emax (p53 Y220C; Emax) | IC50 (NUGC3 p53 Y220C; NUGC3 cells) | IC50 (H1299 p53 Y220C; [6]) | IC50 (H1299 p53 R273H; [7]) | ΔTm at 10 µM [2, 8] | Kd [1]
COc1cc(S(=O)(=O)C2CC2)ccc1NCC#Cc1nc2c(N[C@@H]3CCN(C)C[C@@H]3F)cccn2c1CC(F)(F)F [Example 67, (3S,4R)—N-[2-(3-{[4-(cyclopropanesulfonyl)-2-methoxyphenyl]amino}prop-1-yn-1-yl)-3-(2,2,2-trifluoroethyl)imidazo[1,2-a]pyridin-8-yl]-3-fluoro-1-methylpiperidin-4-amine] | < 0.01 µM | ≥ 10 °C | 70 to 80% | < 0.75 µM | < 0.75 µM | < 0.75 µM | 5 to 8 µM |  |  |  |  |  |  |  |  |  | 
CNC(=O)c1ccc(OC)c(NCC#Cc2nn3c(N[C@@H]4C[C@H]5CC[C@@H]([C@@H]4F)N5C)cccc3c2SC(F)(F)F)c1 [Example 284] |  |  |  |  |  |  |  | < 0.01 µM | ≥ 10 °C | ≥ 10 °C | < 0.75 µM | 80 to 90% | < 0.75 µM | < 0.75 µM | < 5 µM |  | 
COc1cc(C(=O)NC(C)C)ccc1NCC#Cc1nc2c(N[C@@H]3CCN(C)C[C@@H]3F)cccn2c1CC(F)(F)F [Example 48, 4-{[3-(8-{[(3S,4R)-3-fluoro-1-methylpiperidin-4-yl]amino}-3-(2,2,2-trifluoroethyl)imidazo[1,2-a]pyridin-2-yl)prop-2-yn-1-yl]amino}-N-isopropyl-3-methoxybenzamide] | < 0.01 µM | ≥ 10 °C | 70 to 80% | 0.75 to 1.5 µM | 0.75 to 1.5 µM | < 0.75 µM | 5 to 8 µM |  |  |  |  |  |  |  |  |  | 
CNC(=O)c1ccc(NCC#Cc2nc3c(N[C@H]4CCc5ncnn5C4)cccn3c2SC(F)(F)F)c(OC)c1 (stereo in doubt) [Example 189] | 0.01 to 0.1 µM | 5 to 10 °C | 70 to 80% | > 3 µM | > 3 µM | > 3 µM | ≥ 10 µM |  |  |  |  |  |  |  |  | 5 to 10 °C | 
CNC(=O)c1ccc(NCC#Cc2cc3c(N[C@@H]4CCN(C)C[C@@H]4F)nccn3c2SC(F)(F)F)cc1 [Example 297] |  |  |  |  |  |  |  |  | ≥ 10 °C |  | < 0.75 µM | > 90% | < 0.75 µM | < 0.75 µM | ≥ 10 µM |  | < 0.01 µM
COc1cc(S(C)(=O)=O)ccc1NCC#Cc1nc2c(NC3CC4(COC4)C3)cccn2c1CC(F)(F)F [Example 115, 2-{3-[(4-methanesulfonyl-2-methoxyphenyl)amino]prop-1-yn-1-yl}-N-{2-oxaspiro[3.3]heptan-6-yl}-3-(2,2,2-trifluoroethyl)imidazo[1,2-a]pyridin-8-amine] | 0.1 to 1 µM | 5 to 10 °C | < 70% | > 3 µM | > 3 µM | > 3 µM | ≥ 10 µM |  |  |  |  |  |  |  |  |  | 
CN1CC[C@@H](Nc2cccn3c(CC(F)(F)F)c(C#CCNc4ccccc4)nc23)[C@@H](F)C1 [Example 112, (3S,4R)-3-fluoro-1-methyl-N-{2-[3-(phenylamino)prop-1-yn-1-yl]-3-(2,2,2-trifluoroethyl)imidazo[1,2-a]pyridin-8-yl}piperidin-4-amine] | 0.1 to 1 µM | 5 to 10 °C | 70 to 80% | > 3 µM | > 3 µM | > 3 µM | ≥ 10 µM |  |  |  |  |  |  |  |  |  | 
C=CC(=O)N(C)c1c(C#CCNc2ccc(C(=O)NC)cc2OC)nc2c(N[C@@H]3CCN(C)C[C@@H]3F)cccn12 [Example 26, 4-{[3-(8-{[(3S,4R)-3-fluoro-1-methylpiperidin-4-yl]amino}-3-(N-methylprop-2-enamido)imidazo[1,2-a]pyridine-2-yl)prop-2-yn-1-yl]amino}-3-methoxy-N-methylbenzamide] |  | 5 to 10 °C | < 70% | > 3 µM | > 3 µM | > 3 µM | ≥ 10 µM |  |  |  |  |  |  |  |  |  | 
CNC(=O)c1ccc(NCC#Cc2nc3c(NC4CCN(C)CC4)cc(NC(=O)OC)cn3c2CC(F)(F)F)c(OC)c1 [Example 45, methyl N-[2-(3-{[2-methoxy-4-(methylcarbamoyl)phenyl]amino}prop-1-yn-1-yl)-8-[(1-methylpiperidin-4-yl)amino]-3-(2,2,2-trifluoroethyl)imidazo[1,2-a]pyridin-6-yl]carbamate] |  | 1 to 5 °C | < 70% | > 3 µM | > 3 µM | > 3 µM | ≥ 10 µM |  |  |  |  |  |  |  |  |  | 
C=CC(=O)Nc1cc(NC2CCN(C)CC2)c2nc(C#CCNc3ccc(C(=O)NC)cc3OC)c(CC(F)(F)F)n2c1 [Example 42, 3-methoxy-N-methyl-4-[(3-{8-[(1-methylpiperidin-4-yl)amino]-6-(prop-2-enamido)-3-(2,2,2-trifluoroethyl)imidazo[1,2-a]pyridin-2-yl}prop-2-yn-1-yl)amino]benzamide] |  | < 1 °C | < 70% | > 3 µM | > 3 µM | > 3 µM | ≥ 10 µM |  |  |  |  |  |  |  |  |  | 
C=CC(=O)Nc1c(C#CCNc2ccc(C(=O)NC)cc2OC)nc2c(N[C@@H]3CCN(C)C[C@@H]3F)cccn12 [Example 23, 4-{[3-(8-{[(3S,4R)-3-fluoro-1-methylpiperidin-4-yl]amino}-3-(prop-2-enamido)imidazo[1,2-a]pyridin-2-yl)prop-2-yn-1-yl]amino}-3-methoxy-N-methylbenzamide] |  | 5 to 10 °C | < 70% | > 3 µM | > 3 µM | > 3 µM | ≥ 10 µM |  |  |  |  |  |  |  |  |  | 
COc1cc(P(C)(C)=O)ccc1NCC#Cc1cc2c(N[C@@H]3CCN(C)C[C@@H]3F)nccn2c1SC(F)(F)F [Example 185, (3S,4R)—N-[7-(3-{[4-(dimethylphosphoryl)-2-methoxyphenyl]amino}prop-1-yn-1-yl)-6-[(trifluoromethyl)sulfanyl]pyrrolo[1,2-a]pyrazin-1-yl]-3-fluoro-1-methylpiperidin-4-amine; formic acid] |  |  | 80 to 90% | < 0.75 µM | < 0.75 µM | < 0.75 µM | ≥ 10 µM |  |  |  |  |  |  |  |  | ≥ 10 °C | 
C=C(F)C(=O)Nc1cc(NC2CCN(C)CC2)c2nc(C#CCNc3ccc(C(=O)NC)cc3OC)c(CC(F)(F)F)n2c1 [Example 90, 4-({3-[6-(2-fluoroprop-2-enamido)-8-[(1-methylpiperidin-4-yl)amino]-3-(2,2,2-trifluoroethyl)imidazo[1,2-a]pyridin-2-yl]prop-2-yn-1-yl}amino)-3-methoxy-N-methylbenzamide] |  | 1 to 5 °C | < 70% | > 3 µM | > 3 µM | > 3 µM | ≥ 10 µM |  |  |  |  |  |  |  |  |  | 
C=C(C)C(=O)Nc1cc(NC2CCN(C)CC2)c2nc(C#CCNc3ccc(C(=O)NC)cc3OC)c(CC(F)(F)F)n2c1 [Example 13, 3-methoxy-N-methyl-4-[(3-{8-[(1-methylpiperidin-4-yl)amino]-6-(2-methylprop-2-enamido)-3-(2,2,2-trifluoroethyl)imidazo[1,2-a]pyridin-2-yl}prop-2-yn-1-yl)amino]benzamide, formic acid salt] |  | 1 to 5 °C | < 70% |  | > 3 µM | > 3 µM | ≥ 10 µM |  |  |  |  |  |  |  |  |  | 
